Read-outs that look alike come from different tables or passages of the source. Square brackets hold non-standard residues; d marks the D form. Peptide text beside a SMILES is read from it. Nspe = C[C@H](NCC(=O)O)c1ccccc1; Nphe = O=C(O)CNCc1ccccc1; Nlys = NCCCCNCC(=O)O
Key:
MTS assay, NIH 3T3 cells = type: cell-based, mouse; settings: mouse, NIH 3T3 fibroblast cells
Procedure: (§1) The potencies of all compounds were determined against representative Gram-negative (E. coli ATCC 35218) and Gram-positive (B. subtilis ATCC 6633) biosafety level 1 (BSL1) organisms. In addition to hemolytic activity, the conventional measure of toxicity to mammalian cells, the effect of each ampetoid on NIH 3T3 mouse fibroblast cells was determined using the MTS tetrazolium salt-based colorimetric assay. While hemolysis measures the degree to which erythrocytes are lysed, the MTS assay indirectly quantifies the extent to which cellular metabolic activity is inhibited.
(§2) MTS assays. NIH/3T3 cells (ATCC Corporation) cultured at 37° C. and 5% CO2 in complete Dulbecco's modified eagle's media (CDMEM) supplemented with 1% sodium pyruvate, 1% penicillin-streptomycin, 1.5 g/L NaHCO3, and 10% fetal bovine serum. Cells were seeded at a density of 5,000 cells per well for NIH/3T3 cells in 96-well plates (100 μl total volume). A peptoid solution plate (100 μL total volume per well) was prepared by serial dilution of aqueous peptoid stock solution in Hank's balanced salt solution (HBSS) media. The day-old cell monolayers were washed with HBSS and media was replaced with 100 μL HBSS. The contents of the peptoid solution plate were transferred onto corresponding wells of the cell monolayer plate, and 40 μL MTS reagent (Promega, Inc.) was added to each well. After incubating for 3 hours at 37° C., absorbance at 490 nm was determined. […] The average of six replicates is reported.

[1] = tested on: NIH 3T3 mouse fibroblast cells; test: MTS assay, NIH 3T3 cells; type: cell-based
Procedure: as §1, §2

E. coli ATCC 35218 = type: cell-based
Procedure: (§3) Whereas the preceding generation of molecules was designed to elucidate structure function relationships of specific molecular parameters (chirality, length, hydrophobicity, etc.), another generation compounds were designed explicitly to explore effects on selectivity. Antimicrobial activity of these compounds was tested against bacterial strains E. coli (ATTC 35218) and B. subtilis (ATTC 6633) in cation-adjusted MHB using the microdilution protocols previously described. The sequences, antimicrobial activities, hemolytic activities, and metabolic inhibitory concentrations against NIH 3T3 mouse fibroblast cells are summarized in Table 3 and the rationale of their design is described below.
(§4) Screening antibacterial assays. MICs were determined in 96-well microtiter plates in accordance with CLSI M7-A6 protocols. Peptoid solutions with 50 μL total volume were prepared using 2:1 serial dilutions. 50 i—tL of bacteria inoculum (1×10^6 CFU/mL) prepared in cation-adjusted Mueller-Hinton broth (CAMHB) was added to test wells. Control wells contained 100 μL MHB (no growth) or 50 μL inoculums with 50 μL MHB with no peptoid. […] Reported values were reproducible over three experiments, each containing two parallel trials.
(§5) Antibacterial Assays for Compositions. MICs were determined according to CLSI M7-A6 protocols in a 96-well microtiter plate. In test wells, 50 μL bacterial inoculum (1×10^6 CFU/ml) in cation-adjusted Mueller-Hinton broth (CAMHB) was added to 50 μL peptoid solution in CAMHB (prepared by 1:2 serial dilutions). Positive controls contained 50 μL inoculum and 50 μL CAMHB without peptoid. […] MIC values reported were reproducible between three independent experimental replicates, each consisting of two parallel trials.

human erythrocytes = test: Hemolysis assay; type: cell-based
Procedure: (§6) Hemolysis assays. Erythrocytes were isolated from freshly drawn, heparanized human blood and resuspended to 20 vol % in PBS (pH 7.4). In a 96-well microtiter plate, 100 μL erythrocyte suspension was added to 100 uL peptoid solution in PBS (prepared by 1:2 serial dilutions), or 100 μL PBS in the case of negative controls. 100% hemolysis wells contained 100 μL, blood cell suspension with 100 μL 0.2 vol % Triton X-100. The plate was incubated for 1 h at 37° C., then each well was diluted with 1504 PBS. The plate was then centrifuged at 1200 g for 15 min, 100 μL of the supernatant from each well transferred to a fresh microtiter plate, and A350 measured.
Hemolysis assays. Erythrocytes were isolated from freshly drawn, heparanized human blood and resuspended in PBS (pH 7.4) to make a 20% volume suspension. Peptoid solutions were prepared by serial dilution (2:1) in a 96-well microtiter plate. For test wells, 100 μLL of erythrocyte suspension was added to 100 μL of peptoid solution in PBS; PBS without peptoid was used as the negative control and 0.2 vol % Triton X-100 as the positive control that indicates 100% hemolysis. After 1 hour incubation at 37° C., each well was diluted with 150 μL PBS. Plates were then centrifuged at 1,200×g for 15 minutes to pellet the cells. 30 μL of the supernatant from each well were transferred to the corresponding well of a second 96-well plate that contains 70 μL PBS.
as §6, with “assays for Compositions.” for “assays.”, “100” for “100 uL”, “μL” for “μL,”, “150 μL” for “1504”, “1200g” for “1200 g”

B. subtilis ATCC 6633 = type: cell-based; settings: ATCC 6633
Procedure: as §3, §4, §5

[2] = RP-HPLC solvent composition at elution as measure of molecular hydrophobicity; type: physicochemical; settings: Table 8; gradient 5 to 95% ACN over 45 min, C18 column, 0.2 ml/min; average of three replicates
Source text: An initial set of 15 ampetoid analogs was synthesized to determine whether peptoids are affected by structural and sequence modifications in a manner consistent with AMP activities. The designs for ampetoids in this library were derived from two antibacterial and selective amphipathic dodecamers, 1 and 2. Peptoid 1 [H-(Nlys-Nspe-Nspe)4-NH2] is composed of 2/3 Nspe, the peptoid analog of phenylalanine, and 1/3 Mys, the peptoid analog of lysine (see FIG. 1 for the structures of representative peptoid monomers and corresponding N-substituents). Peptoid 2 [H-(Mys-Nssb-Nspe)4-NH2] contains 1/3 isoleucine-like Nssb monomers in place of Nspe. The variant sequences were designed to effect changes in chirality, length, hydrophobicity, charge, and amphipathicity. All of these compounds were tested for antibacterial activity against representative BSL1 Gram-negative (E. coli JM109) and Gram-positive (B. subtilis BR151) bacterial strains. As an initial measure of selectivity, the lytic activity of the peptoids was determined against human erythrocytes. Table 1 summarizes the sequences synthesized, the solvent composition at RP-HPLC elution as a relative measure of molecular hydrophobicity, and antibacterial and hemolytic activities.
Following synthesis, peptoid oligomers can be cleaved from the resin, simultaneously removing the tert-butoxycarbonyl (Boc) protecting group from Mys residues, by treatment with 10 ml 2,2,2-trifluoroacetic acid (TFA)/triisopropylsilane/H2O (95:2.5:2.5 by volume) for 30 min. The cleavage mixture is then diluted with 25 ml 50% aqueous acetonitrile, frozen, and lyophilized. Dilution and lyophilization is repeated twice more in order to remove excess TFA. Subsequent to cleavage, peptoids are each purified to >97% homogeneity by preparative scale reversed-phase HPLC using a Waters Prep LC 4000 system, with Waters 2487 dual-wavelength UV detection, and gradient elution (solvent A, 0.1 vol % trifluoroacetic acid (TFA) in water; solvent B, 0.1 vol % TFA in acetonitrile) through a Vydac (Hysperia, Calif.) 214TP101550 C4 peptide/protein column (10-15 μm, 300 Å, 5×25 cm). Following prep HPLC, peptoid purities and crude yields were determined from analytical scale HPLC, performed with a Waters 2695 Separations Module with a Waters 2487 dual-wavelength UV detector and gradient elution (solvent A, 0.1 vol % TFA in water; solvent B, 0.1 vol % TFA in acetonitrile) through a Vydac C4 214TP53 peptide/protein column (5 μm, 300 Å, 3.2×250 mm). The precise gradient employed for HPLC depended on the identity and hydrophobicity of the oligomer in question. All analytical HPLC was performed at 0.5 ml/min flow and 58° C. Preparative HPLC was performed at 50 ml/min flow and room temperature.
Compound synthesis and purification. Peptoids were synthesized using an ABI 433A peptide synthesizer (Applied Biosystems, Inc.) on Rink amide MBHA resin (Novabiochem, Inc.) using the submonomer approach^3. Briefly, bromoacetic acid, activated by diisopropylcarbodiimide was used to form a bromocetylated intermediate on the terminal amide group. Bromide was then substituted with the desired primary amine through SN2 displacement to build the peptoid chain. The amines used in peptoid synthesis include benzylamine, octadecylamine, (s)-(+)-2-amino-3-methylbutane, (s)-α-methylbenzylamine, (r)-(α-methylbenzylamine (all purchased from Sigma-Aldrich), and N-tert-butoxycarbonyl-1,4 diaminobutane (Mys) that was made using a published procedure^83. Resin-bound peptoids were then exposed to a mixture of trifluoroacetic acid (TFA): triisopropylsilane:water (95:2.5:2.5, v:v:v) for ten minutes to cleave peptoids from the solid phase. Peptoids were purified by reversed-phase HPLC (RP-HPLC) (Waters Corporation) using a C18 column and a linear acetonitrile/water gradient. A final purity greater than 97% as measured by analytical RP-HPLC (Waters Corporation) was achieved, and the identity of each molecule was checked using electrospray ionization mass spectrometry. […]

Row | Compound | CC50 at 3 h (MTS assay, NIH 3T3 cells) [µM] | ID50 [1] [µM] | E. coli MIC (E. coli ATCC 35218; ATCC 35218) [µM] | further results
1 | C[C@@H](c1ccccc1)N(CC(N)=O)C(=O)CN(C(=O)CN(CCCCN)C(=O)CN(Cc1ccccc1)C(=O)CN(Cc1ccccc1)C(=O)CN(CCCCN)C(=O)CN(C(=O)CN(C(=O)CN(CCCCN)C(=O)CN(Cc1ccccc1)C(=O)CN(Cc1ccccc1)C(=O)CNCCCCN)[C@@H](C)c1ccccc1)[C@@H](C)c1ccccc1)[C@@H](C)c1ccccc1 [1-Npm2,3,8,9, H-(Nlys-Npm-Npm-Nlys-Nspe-Nspe)2-NH2] | 15 | 15 | 6.3 | –
2 | C[C@@H](c1ccccc1)N(CC(N)=O)C(=O)CN(C(=O)CN(CCCCN)C(=O)[C@@H]1CCCN1C(=O)CN(C(=O)CN(CCCCN)C(=O)CN(C(=O)CN(C(=O)CN(CCCCN)C(=O)CN(C(=O)CN(C(=O)CNCCCCN)[C@@H](C)c1ccccc1)[C@@H](C)c1ccccc1)[C@@H](C)c1ccccc1)[C@@H](C)c1ccccc1)[C@@H](C)c1ccccc1)[C@@H](C)c1ccccc1 [1-Pro9, H-(Nlys-Nspe-Nspe)2-Nlys-Nspe-L-Pro-Nlys-Nspe-Nspe-NH2] (H-[Nlys][Nspe][Nspe][Nlys][Nspe][Nspe][Nlys][Nspe]P[Nlys][Nspe][Nspe]-NH2) | 24 | 24 | 12.5 | –
3 | C[C@@H](c1ccccc1)N(CC(N)=O)C(=O)CN(CCCCN)C(=O)CN(CCCCN)C(=O)CN(C(=O)CN(C(=O)CN(CCCCN)C(=O)CN(C(=O)CN(CCCCN)C(=O)CN(CCCCN)C(=O)CN(C(=O)CN(C(=O)CNCCCCN)[C@@H](C)c1ccccc1)[C@@H](C)c1ccccc1)[C@@H](C)c1ccccc1)[C@@H](C)c1ccccc1)[C@@H](C)c1ccccc1 [1-Nlys5,11, H-(Nlys-Nspe-Nspe-Nlys-Nlys-Nspe)2-NH2] (H-[Nlys][Nspe][Nspe][Nlys][Nlys][Nspe][Nlys][Nspe][Nspe][Nlys][Nlys][Nspe]-NH2) | 85 | – | 50 | HD10 (human erythrocytes): >200/>200 μM; HD50 (human erythrocytes): >200/>200 μM; MIC for E. coli ATCC 35218 (E. coli ATCC 35218; ATCC 35218): 30 µM; MIC for B. subtilis ATCC 6633 (B. subtilis ATCC 6633): 0.78 µM
4 | CC[C@H](C)[C@H](NC(=O)CN)C(=O)NCC(=O)N[C@@H](C)C(=O)N[C@H](C(=O)N[C@@H](CC(C)C)C(=O)N[C@@H](CCCCN)C(=O)N[C@H](C(=O)N[C@@H](CC(C)C)C(=O)N[C@H](C(=O)N[C@H](C(=O)NCC(=O)N[C@@H](CC(C)C)C(=O)N1CCC[C@H]1C(=O)N[C@@H](C)C(=O)N[C@@H](CC(C)C)C(=O)N[C@H](C(=O)N[C@@H](CO)C(=O)N[C@@H](Cc1c[nH]c2ccccc12)C(=O)N[C@H](C(=O)N[C@@H](CCCCN)C(=O)N[C@@H](CCCNC(=N)N)C(=O)N[C@@H](CCCCN)C(=O)N[C@@H](CCCNC(=N)N)C(=O)N[C@@H](CCC(N)=O)C(=O)N[C@@H](CCC(N)=O)C(N)=O)[C@@H](C)CC)[C@@H](C)CC)[C@@H](C)O)[C@@H](C)O)C(C)C)C(C)C [melittin, reference compound] | – | – | – | HD50 (human erythrocytes; Table 8): 6 µM; % ACN at RP-HPLC elution [2]: 65.2 % ACN; MIC for E. coli ATCC 35218 (E. coli ATCC 35218; Table 8, CAMHB): 12.5 µM; SR (E. coli ATCC 35218; Table 8, calculated as HD10/E. coli MIC): 0.16
5 | C[C@@H](c1ccccc1)N(CC(=O)N(CC(=O)N(CCCCN)CC(=O)N(CC(=O)N(CC(=O)N(CCCCN)CC(=O)N(CC(=O)N(CC(=O)N(CCCCN)CC(=O)N(CC(=O)N(CC(N)=O)Cc1ccccc1)Cc1ccccc1)Cc1ccccc1)Cc1ccccc1)Cc1ccccc1)Cc1ccccc1)Cc1ccccc1)C(=O)CNCCCCN [1ach-Nspe2, H-(Nlys-Nspe-Npm)-(Nlys-Npm-Npm)3-NH2] (H-[Nlys][Nspe][Nphe][Nlys][Nphe][Nphe][Nlys][Nphe][Nphe][Nlys][Nphe][Nphe]-NH2) | 11 | 11 | 6.3 | –
